Results on 21 molecules are retold here after patent publication US10017514B2, “6,7-dihydropyrazolo[1,5-α]pyrazin-4(5H)-one compounds and their use as negative allosteric modulators of mGluR2 receptors” (Janssen Pharmaceutica NV, priority 2014, dated 2018).

The structures appear in SMILES notation. Where only a bound is given, the exact number is not on record here.

One data set has as its target T1, human mGlu2 receptor (Homo sapiens, UniProt Q14416).
T1 construct: expressed in transfected cells; host or cells: CHO cells (membrane preparation)
The data set is described as follows: [35S]GTPγS binding assay, mGluR2 negative allosteric modulation. Format: biochemical. The note with it: for Emax: maximal % inhibition relative to the control glutamate response (EC80 glutamate), read-out: GTPγS-hmGluR2 anGT Emax; for IC50: membranes from CHO cells transfected with human mGlu2 receptor, glutamate ~EC80 (60 μM), read-out: GTPγS-hmGluR2 anGT pIC50 (converted). The procedure: Total reaction volume was 200 μl. […] Membrane-bound radioactivity was counted in a Topcount.

A further data set deals with rats. The data set is described as follows: Reversal of the effect of the mGluR2 PAM JNJ-42153605-induced inhibition of scopolamine-induced hyperlocomotion. Type of data set: in vivo, rat. The note with it: for ED50: Rattus norvegicus, rats, PO, 60 min pretreatment, JNJ-42153605 20 mg/kg i.v. + scopolamine 0.16 mg/kg i.v., criterion total distance >1500 cm in 30 min, read-out: SCOP JNJ-42153605 ED50. How it is done:
Motor activity was measured in microprocessor-based motor activity arenas (closed gray PVC cylinders with a height of 39 cm and a diameter of 31 cm). Each arena was placed on an infrared LED (8×8 LEDs) lit box (white PVC squared box; 40×40 cm^2; height 12.5 cm. An infrared-sensitive tube camera and a white light source were mounted to the ceiling above the observation chamber to track the animal. […] Noldus, Wageningen, The Netherlands). The intensity of the light within the activity cages (measured in the centre at the level of the floor) ranged between 4 and 8 LUX. The rats were pretreated with test compound or vehicle at 60 min before the start of the activity recordings and placed into individual cages. […] WO2010/130424; Cid et al. J. Med.

[1] abbreviates: historical series of solvent-pretreated control rats, first 30 min.

T1 sequence (Q14416 19-872): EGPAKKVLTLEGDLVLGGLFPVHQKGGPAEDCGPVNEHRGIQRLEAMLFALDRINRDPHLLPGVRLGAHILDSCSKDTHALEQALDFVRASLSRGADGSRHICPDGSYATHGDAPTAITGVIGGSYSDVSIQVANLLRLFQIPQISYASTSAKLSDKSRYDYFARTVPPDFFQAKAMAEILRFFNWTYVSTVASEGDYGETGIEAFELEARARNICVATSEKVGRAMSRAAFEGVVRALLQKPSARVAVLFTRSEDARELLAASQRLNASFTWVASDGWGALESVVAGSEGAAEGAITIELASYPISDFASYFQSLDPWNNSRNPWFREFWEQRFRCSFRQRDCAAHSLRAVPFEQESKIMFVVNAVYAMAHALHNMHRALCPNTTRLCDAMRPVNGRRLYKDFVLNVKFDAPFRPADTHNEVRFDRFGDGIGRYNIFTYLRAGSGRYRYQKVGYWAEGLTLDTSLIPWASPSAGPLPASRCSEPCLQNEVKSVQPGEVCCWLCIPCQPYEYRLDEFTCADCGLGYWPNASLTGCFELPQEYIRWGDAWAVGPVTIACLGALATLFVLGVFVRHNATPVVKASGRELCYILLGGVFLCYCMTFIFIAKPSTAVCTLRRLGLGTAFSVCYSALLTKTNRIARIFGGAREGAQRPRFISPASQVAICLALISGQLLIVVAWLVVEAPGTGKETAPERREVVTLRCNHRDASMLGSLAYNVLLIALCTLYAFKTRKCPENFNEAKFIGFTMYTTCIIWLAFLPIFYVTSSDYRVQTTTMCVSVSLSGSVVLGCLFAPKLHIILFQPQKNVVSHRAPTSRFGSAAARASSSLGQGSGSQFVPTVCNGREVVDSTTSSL

The term Emax denotes the greatest response seen or fitted, relative to the assay's reference. In general, melting point refers to the temperature, or range, at which the solid turns liquid. Regarding `Cc1cc(-c2cnn3c2C(=O)N(c2ccc(C(F)(F)F)cc2)C[C@@H]3C)no1` [Co. No. 1, (7S)-7-Methyl-3-(5-methylisoxazol-3-yl)-5-[4-(trifluoromethyl)phenyl]-6,7-dihydropyrazolo[1,5-a]pyrazin-4-one], the melting point came out at 165.04 °C. Further, at human mGlu2 receptor, the Emax is 103% and the IC50 was 69.2 nM.

A word on the ED50: it is the midpoint of the dose-response relation. In turn, `C[C@H]1CN(c2ccc(C(F)(F)F)cc2)C(=O)c2c(-c3cc(-c4ccc(N)nc4)on3)cnn21` [Co. No. 2, (7S)-3-[5-(6-Amino-3-pyridyl)isoxazol-3-yl]-7-methyl-5-[4-(trifluoromethyl)phenyl]-6,7-dihydropyrazolo[1,5-a]pyrazin-4-one] registered a melting point of 233.79 °C. On human mGlu2 receptor, the Emax was determined as 103% and the IC50 was 2.04 nM. Also, the ED50 in the data set on rats is 0.5 mg/kg.

Molecule `C[C@H]1CN(c2ccc(C(F)(F)F)cc2)C(=O)c2c(-c3cc(-c4ccccc4)on3)cnn21` [Co. No. 3, (7S)-7-methyl-3-(5-phenylisoxazol-3-yl)-5-[4-(trifluoromethyl)phenyl]-6,7-dihydropyrazolo[1,5-a]pyrazin-4-one] yielded a melting point of 194.25 °C. Besides, on human mGlu2 receptor, the Emax was 103% and the IC50 was 9.12 nM.

`C[C@H]1CN(c2ccc(C(F)(F)F)cc2)C(=O)c2c(-c3cc(-c4ccccn4)on3)cnn21` [Co. No. 4, (7S)-7-methyl-3-[5-(2-pyridyl)isoxazol-3-yl]-5-[4-(trifluoromethyl)phenyl]-6,7-dihydropyrazolo[1,5-a]pyrazin-4-one] showed a melting point of 193.65 °C. Moreover, on human mGlu2 receptor, the Emax stood at 106% and the IC50 was 40.7 nM.

As for `C[C@H]1CN(c2ccc(C(F)(F)F)cc2)C(=O)c2c(-c3cc(-c4cccnc4)on3)cnn21` [Co. No. 5, (7S)-7-methyl-3-[5-(3-pyridyl)isoxazol-3-yl]-5-[4-(trifluoromethyl)phenyl]-6,7-dihydropyrazolo[1,5-a]pyrazin-4-one], the melting point was 215.1 °C. Moreover, on human mGlu2 receptor, the Emax was found to be 106% and the IC50 is 11.2 nM. Also, in the data set on rats, the ED50 worked out at 0.51 mg/kg.

Consider `Cc1cc(-c2cc(-c3cnn4c3C(=O)N(c3ccc(C(F)(F)F)cc3)C[C@@H]4C)no2)ccn1` [Co. No. 6, (7S)-7-methyl-3-[5-(2-methyl-4-pyridyl)isoxazol-3-yl]-5-[4-(trifluoromethyl)phenyl]-6,7-dihydropyrazolo[1,5-a]pyrazin-4-one], for which the melting point was found to be 118.52 °C. On human mGlu2 receptor, the Emax is 114% and the IC50 was 40.7 nM.

For the molecule `Cc1cncc(-c2cc(-c3cnn4c3C(=O)N(c3ccc(C(F)(F)F)cc3)C[C@@H]4C)no2)c1` [Co. No. 7, (7S)-7-methyl-3-[5-(5-methyl-3-pyridyl)isoxazol-3-yl]-5-[4-(trifluoromethyl)phenyl]-6,7-dihydropyrazolo[1,5-a]pyrazin-4-one], the melting point was 208.95 °C. On human mGlu2 receptor, the Emax came out at 106% and the IC50 is 27.5 nM.

Take `Cc1cc(-c2cnn3c2C(=O)N(c2ccc(C(F)(F)F)c(Cl)c2)C[C@@H]3C)no1` [Co. No. 8, (7S)-5-[3-chloro-4-(trifluoromethyl)phenyl]-7-methyl-3-(5-methylisoxazol-3-yl)-6,7-dihydropyrazolo[1,5-a]pyrazin-4-one]: at human mGlu2 receptor, the Emax came out at 110% and the IC50 was 16.2 nM.

Take `C[C@H]1CN(c2ccc(C(F)(F)F)c(Cl)c2)C(=O)c2c(-c3cc(-c4ccc(N)nc4)on3)cnn21` [Co. No. 9, (7S)-3-[5-(6-amino-3-pyridyl)isoxazol-3-yl]-5-[3-chloro-4-(trifluoromethyl)phenyl]-7-methyl-6,7-dihydropyrazolo[1,5-a]pyrazin-4-one]: on human mGlu2 receptor, the Emax is 113% and the IC50 was 1.15 nM.

In the case of `C[C@H]1CN(c2ccc(C(F)(F)F)c(Cl)c2)C(=O)c2c(-c3cc(-c4ccccn4)on3)cnn21` [Co. No. 10, (7S)-5-[3-chloro-4-(trifluoromethyl)phenyl]-7-methyl-3-[5-(2-pyridyl)isoxazol-3-yl]-6,7-dihydropyrazolo[1,5-a]pyrazin-4-one], the melting point is 188.25 °C. In addition, at human mGlu2 receptor, the Emax was 106% and the IC50 is 4.79 nM. In addition, in the data set with rats, the ED50 was above 0.63 mg/kg.

The molecule `C[C@H]1CN(c2ccc(C(F)(F)F)c(Cl)c2)C(=O)c2c(-c3cc(-c4cccnc4)on3)cnn21` [Co. No. 11, (7S)-5-[3-chloro-4-(trifluoromethyl)phenyl]-7-methyl-3-[5-(3-pyridyl)isoxazol-3-yl]-6,7-dihydropyrazolo[1,5-a]pyrazin-4-one] registered a melting point of 156.64 °C. Further, on human mGlu2 receptor, the Emax was determined as 110% and the IC50 was 2.45 nM. For the same molecule, the ED50 in the data set on rats was above 0.63 mg/kg.

In turn, `C[C@H]1CN(c2ccc(C(F)(F)F)c(Cl)c2)C(=O)c2c(-c3cc(-c4cnccn4)on3)cnn21` [Co. No. 13, (7S)-5-[3-chloro-4-(trifluoromethyl)phenyl]-7-methyl-3-(5-pyrazin-2-ylisoxazol-3-yl)-6,7-dihydropyrazolo[1,5-a]pyrazin-4-one] had a melting point of 205.91 °C. In addition, on human mGlu2 receptor, the Emax is 106% and the IC50 was 6.03 nM.

In turn, `Cc1cc(N2C[C@H](C)n3ncc(-c4cc(-c5ccccn5)on4)c3C2=O)ccc1C(F)(F)F` [Co. No. 14, (7S)-7-methyl-5-[3-methyl-4-(trifluoromethyl)phenyl]-3-[5-(2-pyridyl)isoxazol-3-yl]-6,7-dihydropyrazolo[1,5-a]pyrazin-4-one] returned a melting point of 155.07 °C. On human mGlu2 receptor, the maximal effect (Emax) amounted to 107% and the IC50 is 14.8 nM.

`Cc1cncc(-c2cc(-c3cnn4c3C(=O)N(c3ccc(C(F)(F)F)c(C)c3)C[C@@H]4C)no2)c1` [Co. No. 16, (7S)-7-methyl-3-[5-(5-methyl-3-pyridyl)isoxazol-3-yl]-5-[3-methyl-4-(trifluoromethyl)phenyl]-6,7-dihydropyrazolo[1,5-a]pyrazin-4-one] showed a melting point of 172.9 °C. In addition, at human mGlu2 receptor, the maximal response (Emax) is 110% and the IC50 was 21.4 nM.

In turn, `Cc1cc(N2C[C@H](C)n3ncc(-c4cc(-c5cnccn5)on4)c3C2=O)ccc1C(F)(F)F` [Co. No. 17, (7S)-7-methyl-5-[3-methyl-4-(trifluoromethyl)phenyl]-3-(5-pyrazin-2-ylisoxazol-3-yl)-6,7-dihydropyrazolo[1,5-a]pyrazin-4-one] returned a melting point of 181.57 °C. Moreover, at human mGlu2 receptor, the maximum response (Emax) was 106% and the IC50 was 17.4 nM.

Take `C[C@H]1CN(c2ccc(C(F)(F)F)cc2)C(=O)c2c(-c3cc(-c4cncc(F)c4)on3)cnn21` [Co. No. 19, (7S)-3-[5-(5-fluoro-3-pyridyl)isoxazol-3-yl]-7-methyl-5-[4-(trifluoromethyl)phenyl]-6,7-dihydropyrazolo[1,5-a]pyrazin-4-one]: the melting point turned out to be 176.27 °C. In addition, on human mGlu2 receptor, the Emax worked out at 101% and the IC50 is 18.6 nM.

With `Cc1cc(N2C[C@H](C)n3ncc(-c4cc(-c5cncc(F)c5)on4)c3C2=O)ccc1C(F)(F)F` [Co. No. 23, (7S)-3-[5-(5-fluoro-3-pyridyl)isoxazol-3-yl]-7-methyl-5-[3-methyl-4-(trifluoromethyl)phenyl]-6,7-dihydropyrazolo[1,5-a]pyrazin-4-one], the melting point came to 168.93 °C. Moreover, at human mGlu2 receptor, the Emax came to 105% and the IC50 is 20.9 nM.

As for `C[C@H]1CN(c2ccc(C(F)(F)F)cc2)C(=O)c2c(-c3cc(-c4cccnc4N)on3)cnn21` [Co. No. 24, (7S)-3-[5-(2-amino-3-pyridyl)isoxazol-3-yl]-7-methyl-5-[4-(trifluoromethyl)phenyl]-6,7-dihydropyrazolo[1,5-a]pyrazin-4-one], the melting point is 189.85 °C. Further, on human mGlu2 receptor, the Emax came out at 106% and the IC50 is 6.03 nM.

For `CNc1cc(-c2cc(-c3cnn4c3C(=O)N(c3ccc(C(F)(F)F)cc3)C[C@@H]4C)no2)ccn1` [Co. No. 25, (7S)-7-methyl-3-[5-[2-(methylamino)-4-pyridyl]isoxazol-3-yl]-5-[4-(trifluoromethyl)phenyl]-6,7-dihydropyrazolo[1,5-a]pyrazin-4-one], the melting point is 208.39 °C. In addition, at human mGlu2 receptor, the Emax was found to be 110% and the IC50 was 25.1 nM.

`CNc1ccc(-c2cc(-c3cnn4c3C(=O)N(c3ccc(C(F)(F)F)cc3)C[C@@H]4C)no2)cn1` [Co. No. 26, (7S)-7-methyl-3-[5-[6-(methylamino)-3-pyridyl]isoxazol-3-yl]-5-[4-(trifluoromethyl)phenyl]-6,7-dihydropyrazolo[1,5-a]pyrazin-4-one] returned a melting point of 173.7 °C. Moreover, on human mGlu2 receptor, the Emax was determined as 112% and the IC50 is 6.17 nM.

Take `CN1[C@@H]2C[C@@H](OC(=O)[C@H](CO)c3ccccc3)C[C@H]1[C@@H]1O[C@@H]12` [Scopolamine, scopolamine, reference compound]: in the data set with rats (setting [1]), the “Median total distance travelled” value worked out at 7246 cm, the “rats travelling >1500 cm” value amounted to 100% and the “rats travelling >4400 cm” value is given as 95.8%.
